Test results published in US7495027B2, “3-aryl-4-hydroxyfuranone compounds and the human and animal health use thereof” (Wyeth, priority 2003, dated 2009).
Converted amounts (≈) assume the structure as drawn. Like-named read-outs stand apart in the source and are kept apart here.

Assays:
enterococci = assay: Minimum inhibitory concentration, microdilution broth method, enterococci; assay type: cell-based; conditions: Enterococcus faecalis, Mueller-Hinton broth, 18-22 hours at 35° C.
Outline: (§1)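 Following NCCLS standard M7-A5, MICs were determined by microdilution in Mueller-Hinton broth, with 5% horse blood added for streptococci.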

Streptococci = assay: Minimum inhibitory concentration, microdilution broth method, streptococci; assay type: cell-based; conditions: S. pneumo GC 1894; Mueller-Hinton broth with 5% horse blood, 18-22 hours at 35° C.
Outline: as §1

[1] = molecular target: T1, S. aureus Enopyruvyl-UPD-N-acetylglucosamine reductase, Mur B (Staphylococcus aureus, UniProt P61431); assay: biochemical; conditions: (S) S. aureus enzyme; read-out: MurB IC50 (converted)
T1 sequence (P61431 1-307): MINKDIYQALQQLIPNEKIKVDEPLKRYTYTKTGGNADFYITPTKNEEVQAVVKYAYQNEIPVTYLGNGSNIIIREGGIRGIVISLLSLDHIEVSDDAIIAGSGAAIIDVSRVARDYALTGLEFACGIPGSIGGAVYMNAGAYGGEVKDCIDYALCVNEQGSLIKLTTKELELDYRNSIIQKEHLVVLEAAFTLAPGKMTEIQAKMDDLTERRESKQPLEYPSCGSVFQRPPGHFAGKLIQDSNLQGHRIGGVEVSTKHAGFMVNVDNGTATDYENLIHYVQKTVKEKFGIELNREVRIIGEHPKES

[2] = molecular target: E. coli UDP-N-acetylglucosamine enolpyruvoyl transferase, MurA (Escherichia coli, UniProt P0A749); assay: biochemical; conditions: (E) E. coli enzyme
Chain of E. coli UDP-N-acetylglucosamine enolpyruvoyl transferase, MurA (P0A749 whole entry): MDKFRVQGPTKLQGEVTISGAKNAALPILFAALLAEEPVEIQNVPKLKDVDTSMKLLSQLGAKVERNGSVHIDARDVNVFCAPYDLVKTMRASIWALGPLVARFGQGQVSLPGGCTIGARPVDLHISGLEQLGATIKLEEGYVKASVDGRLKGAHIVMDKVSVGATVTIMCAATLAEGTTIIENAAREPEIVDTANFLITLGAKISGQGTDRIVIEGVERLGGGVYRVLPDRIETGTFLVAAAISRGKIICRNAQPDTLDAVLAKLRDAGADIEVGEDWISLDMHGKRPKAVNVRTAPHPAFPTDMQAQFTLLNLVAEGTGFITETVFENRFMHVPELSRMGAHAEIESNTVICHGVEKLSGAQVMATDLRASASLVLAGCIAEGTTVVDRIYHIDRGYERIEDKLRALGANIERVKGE
Outline: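 Compound in DMSO/water pre-incubated 10 min at 37° C with enzyme in 50 mM Tris/HCl pH 8.0, 5 mM DTT, 20% glycerol. After Tris/BME and assay buffer were added, OD340 was read at start. Reaction ran 1 hr at 37° C, then stop solution was added with 30 min colour development.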

[3] = molecular target: E. coli Uridine-diphosphate-N-acetvimuramoyl: L-alanine lipase, MurC (Escherichia coli, UniProt P17952); assay: Inhibitory activity against MurC (E. coli); assay type: biochemical
Chain of E. coli Uridine-diphosphate-N-acetvimuramoyl: L-alanine lipase, MurC (P17952 whole entry): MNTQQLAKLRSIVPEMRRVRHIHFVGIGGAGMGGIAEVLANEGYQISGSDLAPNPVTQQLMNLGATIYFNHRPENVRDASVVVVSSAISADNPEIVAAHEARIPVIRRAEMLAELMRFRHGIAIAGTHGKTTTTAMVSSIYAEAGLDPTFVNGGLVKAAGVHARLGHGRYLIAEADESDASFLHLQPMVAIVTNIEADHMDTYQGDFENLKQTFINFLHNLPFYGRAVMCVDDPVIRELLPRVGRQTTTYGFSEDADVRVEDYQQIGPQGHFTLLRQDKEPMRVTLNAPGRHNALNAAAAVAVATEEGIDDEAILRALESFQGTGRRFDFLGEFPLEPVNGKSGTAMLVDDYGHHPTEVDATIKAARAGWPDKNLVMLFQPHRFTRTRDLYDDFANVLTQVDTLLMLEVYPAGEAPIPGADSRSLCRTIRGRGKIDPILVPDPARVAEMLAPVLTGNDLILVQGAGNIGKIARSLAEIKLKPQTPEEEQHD

[4] = molecular target: E. coli Uridine-diphosphate-N-acetylmuramoyl-L-alanine: D-glutamate liease, MurD (Escherichia coli, UniProt P14900); assay: biochemical; conditions: (E) E. coli enzyme
Chain of E. coli Uridine-diphosphate-N-acetylmuramoyl-L-alanine: D-glutamate liease, MurD (P14900 whole entry): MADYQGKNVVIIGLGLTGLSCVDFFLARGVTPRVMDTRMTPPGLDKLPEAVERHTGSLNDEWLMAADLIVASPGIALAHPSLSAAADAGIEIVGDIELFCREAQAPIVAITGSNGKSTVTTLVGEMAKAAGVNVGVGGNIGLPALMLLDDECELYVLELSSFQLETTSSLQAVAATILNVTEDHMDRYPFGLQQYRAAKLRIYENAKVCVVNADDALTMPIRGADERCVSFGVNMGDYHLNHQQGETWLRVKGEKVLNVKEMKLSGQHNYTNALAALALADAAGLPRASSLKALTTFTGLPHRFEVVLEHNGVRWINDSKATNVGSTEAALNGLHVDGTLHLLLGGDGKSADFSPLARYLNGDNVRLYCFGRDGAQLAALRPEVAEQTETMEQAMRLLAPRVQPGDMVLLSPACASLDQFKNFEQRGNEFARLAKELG
Outline: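 Final buffer 83 mM Tris/HCl pH 8.0, 50 mM MgCl2, 2 mM ATP. Compounds from 10 mg/mL DMSO stocks diluted to 100 μg/mL in 50 mM Tris/HCl pH 8.5 (working solution, not final assay level).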

[5] = E. faecalis GC 2242, read-out: MIC E. faecalis GC 2242
[6] = E. faecalis GC 4555, read-out: MIC E. faecalis GC 4555
[7] = (E) E. coli enzyme, read-out: MurC IC50 (converted)

## Cc1ccccc1-c1ccc(/C=C2\OC(=O)C(c3cccc(Cl)c3)=C2O)cc1C [Example 28]
enterococci; [5]
  MIC: 2 µg/mL (≈ 4.96 µM)
enterococci; [6]
  MIC: 4 µg/mL (≈ 9.93 µM)
Streptococci
  MIC: < 0.125 µg/mL
[1]
  IC50: 7.45 µM

## Cc1ccccc1-c1ccc(/C=C2\OC(=O)C(c3cc(Cl)cc(Cl)c3)=C2O)cc1C [Example 29]
enterococci; [5]
  MIC: 0.5 µg/mL (≈ 1.14 µM)
enterococci; [6]
  MIC: 2 µg/mL (≈ 4.57 µM)
Streptococci
  MIC: < 0.125 µg/mL
[1]
  IC50: 4.57 µM

## Cc1cc(/C=C2\OC(=O)C(c3cccc(Cl)c3)=C2O)ccc1-c1ccccc1Cl [Example 30]
enterococci; [5]
  MIC: 4 µg/mL (≈ 9.45 µM)
enterococci; [6]
  MIC: 4 µg/mL (≈ 9.45 µM)
Streptococci
  MIC: 0.25 µg/mL (≈ 0.591 µM)
[1]
  IC50: 4.72 µM

## O=C1O/C(=C\c2cccc(C(F)(F)F)c2)C(O)=C1c1ccc2ccccc2c1 [Example 42]
enterococci; [5]
  MIC: 8 µg/mL (≈ 20.9 µM)
enterococci; [6]
  MIC: 32 µg/mL (≈ 83.7 µM)
Streptococci
  MIC: 8 µg/mL (≈ 20.9 µM)
[2]
  MurA IC50: 20 (E) μg/mL
[3]; (E) E. coli enzyme
  MurC IC50: 6 µg/mL

## O=C1O/C(=C\C2CCCCC2)C(O)=C1c1ccc2ccccc2c1 [Example 51]
enterococci; [5]
  MIC: 8 µg/mL (≈ 25 µM)
enterococci; [6]
  MIC: 32 µg/mL (≈ 99.9 µM)
Streptococci
  MIC: < 0.125 µg/mL
[4]
  IC50: > 78 µM
[2]
  IC50: > 78 µM
[3]; (E) E. coli enzyme
  MurC IC50: 9 µg/mL

## O=C1O/C(=C\c2ccc3ccccc3c2)C(O)=C1c1ccc2ccccc2c1 [Example 52]
enterococci; [5]
  MIC: 4 µg/mL (≈ 11 µM)
enterococci; [6]
  MIC: 8 µg/mL (≈ 22 µM)
Streptococci
  MIC: 0.5 µg/mL (≈ 1.37 µM)
[4]
  IC50: 63.1 µM
[2]
  IC50: > 68.6 µM
[3]; [7]
  IC50: 46.7 µM

## O=C1O/C(=C\c2ccc(-c3ccccc3)cc2)C(O)=C1c1ccc(Cl)cc1 [Example 53]
enterococci; [5]
  MIC: 4 µg/mL (≈ 10.7 µM)
enterococci; [6]
  MIC: 8 µg/mL (≈ 21.3 µM)
Streptococci
  MIC: 0.5 µg/mL (≈ 1.33 µM)
[4]
  IC50: 13.3 µM
[2]
  IC50: > 66.7 µM
[3]; [7]
  IC50: 13.3 µM

## O=C1O/C(=C\c2ccc3ccccc3c2)C(O)=C1c1ccc(Cl)cc1 [Example 54]
enterococci; [5]
  MIC: 4 µg/mL (≈ 11.5 µM)
enterococci; [6]
  MIC: 32 µg/mL (≈ 91.7 µM)
Streptococci
  MIC: < 0.125 µg/mL
[4]
  IC50: > 71.7 µM
[2]
  IC50: > 71.7 µM
[3]; [7]
  IC50: 14.3 µM

## O=C1O/C(=C\c2ccc3ccccc3c2)C(O)=C1c1cccc2ccccc12 [Example 56]
enterococci; [5]
  MIC: 8 µg/mL (≈ 22 µM)
enterococci; [6]
  MIC: 32 µg/mL (≈ 87.8 µM)
Streptococci
  MIC: 4 µg/mL (≈ 11 µM)
[4]
  IC50: > 68.6 µM
[2]
  IC50: > 68.6 µM
[3]; [7]
  IC50: 13.7 µM

## O=C1O/C(=C\c2ccc(-c3ccccc3)cc2)C(O)=C1c1cc(Cl)cc(Cl)c1 [Example 67]
enterococci; [5]
  MIC: 0.5 µg/mL (≈ 1.22 µM)
enterococci; [6]
  MIC: 2 µg/mL (≈ 4.89 µM)
Streptococci
  MIC: < 0.125 µg/mL
[4]
  IC50: 22 µM
[2]
  IC50: 7.33 µM
[3]; [7]
  IC50: 14.7 µM

## O=C1O/C(=C\c2ccc(-c3ccccc3)cc2)C(O)=C1c1cccc(Cl)c1 [Example 69]
enterococci; [5]
  MIC: 0.5 µg/mL (≈ 1.33 µM)
enterococci; [6]
  MIC: 0.5 µg/mL (≈ 1.33 µM)
Streptococci
  MIC: 0.25 µg/mL (≈ 0.667 µM)
[4]
  IC50: 50.7 µM
[2]
  IC50: 21.3 µM

## O=C1O/C(=C\C2CCCCC2)C(O)=C1c1ccc(-c2ccccc2)cc1 [Example 100]
enterococci; [5]
  MIC: > 128 µg/mL
enterococci; [6]
  MIC: > 128 µg/mL
Streptococci
  MIC: 64 µg/mL (≈ 185 µM)
[4]
  IC50: > 72.2 µM
[2]
  IC50: > 72.2 µM
[3]; [7]
  IC50: 37.5 µM

## O=C1O/C(=C\c2cccnc2)C(O)=C1c1ccc(-c2ccccc2)cc1 [Example 101]
enterococci; [5]
  MIC: 64 µg/mL (≈ 187 µM)
enterococci; [6]
  MIC: > 128 µg/mL
Streptococci
  MIC: 64 µg/mL (≈ 187 µM)
[4]
  IC50: > 73.2 µM
[2]
  IC50: 67.4 µM
[3]; [7]
  IC50: 52.7 µM

## Cc1ccc(/C=C2\OC(=O)C(c3ccc(-c4ccccc4)cc3)=C2O)s1 [Example 104]
enterococci; [5]
  MIC: 32 µg/mL (≈ 88.8 µM)
enterococci; [6]
  MIC: 64 µg/mL (≈ 178 µM)
Streptococci
  MIC: 0.5 µg/mL (≈ 1.39 µM)
[4]
  IC50: > 69.4 µM
[2]
  IC50: > 69.4 µM
[3]; [7]
  IC50: 13.9 µM

## O=C1O/C(=C\c2cccc(C(F)(F)F)c2)C(O)=C1c1ccc(-c2ccccc2)c(F)c1 [Example 106]
enterococci; [5]
  MIC: 0.25 µg/mL (≈ 0.586 µM)
enterococci; [6]
  MIC: 1 µg/mL (≈ 2.35 µM)
Streptococci
  MIC: 0.25 µg/mL (≈ 0.586 µM)
[2]
  IC50: 21.1 µM
[3]; [7]
  IC50: 21.1 µM

## O=C1O/C(=C\c2ccc(C(F)(F)F)cc2)C(O)=C1c1ccc(-c2ccccc2)cc1 [R=H, R1=4-(biphenyl), R2=4-CF3—C6H4]
enterococci; [5]
  MIC: 2 µg/mL (≈ 4.9 µM)
enterococci; [6]
  MIC: 8 µg/mL (≈ 19.6 µM)
Streptococci
  MIC: < 0.125 µg/mL
[4]
  IC50: 29.4 µM
[2]
  IC50: 46.5 µM
[3]; MurC IC50, (E) E. coli enzyme
  IC50: 12.2 µM

## O=C1O/C(=C\c2ccc(-c3ccc(Cl)cc3)cc2)C(O)=C1c1ccc(Cl)cc1 [R=H, R1=4-Cl—C6H4, R2=4-(4′-Cl-biphenyl)]
enterococci; [5]
  MIC: 2 µg/mL (≈ 4.89 µM)
enterococci; [6]
  MIC: 8 µg/mL (≈ 19.5 µM)
Streptococci
  MIC: < 0.125 µg/mL
[4]
  IC50: 14.7 µM
[2]
  IC50: 14.7 µM
[3]; MurC IC50, (E) E. coli enzyme
  IC50: 29.3 µM
